Measurements as given in publication PMC3216237 (Environmental science & technology, 2011).

How the values were obtained:
[1] = liver of rats treated with Aroclor 1254; cited from earlier work
[2] = system: rat liver microsomes; type: in vitro ADME; settings: for Enantiomeric fraction (EF) of OH-PCB metabolite: column not specified, microsomal incubation 50 μM PCB, 30 min
[3] = system: Ryanodine receptor (RyR); settings: enantiospecific, only this atropisomer active; cited from earlier work

SMILES | Enantiomeric fraction (EF) of OH-PCB metabolite [2] | also measured
Clc1ccc(Cl)c(-c2c(Cl)ccc(Cl)c2Cl)c1 [PCB 95] |  | Enantiomeric fraction (EF) in liver [1]: 0.63
Oc1cc(Cl)c(Cl)c(-c2cc(Cl)c(Cl)cc2Cl)c1Cl [5–149] | 0.65 | 
Clc1cc(Cl)c(-c2c(Cl)ccc(Cl)c2Cl)cc1Cl [PCB 149] |  | Enantiomeric fraction (EF) in liver [1]: 0.45
Oc1cc(Cl)c(Cl)c(-c2cc(Cl)ccc2Cl)c1Cl [5–95] | approximately 0.33 | 
Oc1cc(Cl)c(Cl)c(-c2ccc(Cl)cc2Cl)c1Cl [5–91] | 0.54 | 
Oc1cc(Cl)c(Cl)c(-c2ccc(Cl)c(Cl)c2Cl)c1Cl [5′-132] | 0.31 | Enantiomeric fraction, CB column ([2]; Cyclosil-B column, analysis conducted at 170 °C, metabolite analysed as MeO-PCB): 0.31 ^a, ^#
Clc1ccc(Cl)c(-c2c(Cl)ccc(Cl)c2Cl)c1Cl [(-)-PCB 136, 2,2′,3,3′,6,6′-hexachlorobiphenyl] |  | Sensitization of RyRs [3]: active
